In ChEMBL document CHEMBL4765455, “Design, synthesis, and biological evaluations of novel 3-amino-4-ethynyl indazole derivatives as Bcr-Abl kinase inhibitors with potent cellular antileukemic activity” (Eur J Med Chem, 2020):
Calls of active or inactive are those of the source. No cut-off for these calls is given here.

Columns and labels:
[1] = Antiproliferative activity against human L132 cells assessed as cell growth inhibition incubated for 72 hrs by MTT assay; format: cell-based
K562 [2] = assay: Antiproliferative activity against human K562 cells assessed as cell growth inhibition incubated for 72 hrs by MTT assay; format: functional
Bcr/Abl fusion protein [3] = target: Bcr/Abl fusion protein (Homo sapiens, UniProt P00519, T315I); assay: Inhibition of BCR-ABL T315I mutant (unknown origin) incubated for 40 mins in presence of [gamma33P]ATP by scintillation method; format: protein assay
Bcr/Abl fusion protein [4] = target: Bcr/Abl fusion protein (Homo sapiens, UniProt P00519); assay: Inhibition of wild type BCR-ABL (unknown origin) incubated for 40 mins in presence of [gamma33P]ATP by scintillation method; format: protein assay
SR [5] = assay: Antiproliferative activity against human SR cells assessed as cell growth inhibition at 10 uM measured after 48 hrs by SRB assay relative to control; format: functional; settings: read-out: GI
CCRF-CEM [6] = assay: Antiproliferative activity against human CCRF-CEM cells assessed as cell growth inhibition at 10 uM measured after 48 hrs by SRB assay relative to control; format: functional; settings: read-out: GI
RPMI-8226 [7] = assay: Antiproliferative activity against human RPMI-8226 cells assessed as cell growth inhibition at 10 uM measured after 48 hrs by SRB assay relative to control; format: functional; settings: read-out: GI
HL-60(TB) [8] = assay: Antiproliferative activity against human HL-60(TB) cells assessed as cell growth inhibition at 10 uM measured after 48 hrs by SRB assay relative to control; format: functional
MOLT-4 [9] = assay: Antiproliferative activity against human MOLT-4 cells assessed as cell growth inhibition at 10 uM measured after 48 hrs by SRB assay relative to control; format: functional; settings: read-out: GI
K562 [10] = assay: Antiproliferative activity against human K562 cells assessed as cell growth inhibition measured after 48 hrs by SRB assay; format: functional
MOLT-4 [11] = assay: Antiproliferative activity against human MOLT-4 cells assessed as cell growth inhibition measured after 48 hrs by SRB assay; format: functional
SR [12] = assay: Antiproliferative activity against human SR cells assessed as cell growth inhibition measured after 48 hrs by SRB assay; format: functional
CCRF-CEM [13] = assay: Antiproliferative activity against human CCRF-CEM cells assessed as cell growth inhibition measured after 48 hrs by SRB assay; format: functional
HL-60(TB) [14] = assay: Antiproliferative activity against human HL-60(TB) cells assessed as cell growth inhibition measured after 48 hrs by SRB assay; format: functional
K562 [15] = assay: Antiproliferative activity against human K562 cells assessed as cell growth inhibition at 10 uM measured after 48 hrs by SRB assay relative to control; format: functional; settings: read-out: GI
[16] = Selectivity index, ratio of GI50 for human HL60(TB) cells to GI50 for human K562 cells; format: functional
RPMI-8226 [17] = assay: Antiproliferative activity against human RPMI-8226 cells assessed as cell growth inhibition measured after 48 hrs by SRB assay; format: functional

Row | Structure (SMILES) | GI50 at 72 h [1] | GI50 (K562 [2]) | IC50 (Bcr/Abl fusion protein [3]) | IC50 (Bcr/Abl fusion protein [4]) | also measured
1 | Cc1ccc(C(=O)Nc2cccc(C#Cc3cccc4[nH]nc(N)c34)c2)cc1C(F)(F)F | > 100 µM | 2.35 µM | – | – | –
2 | Nc1n[nH]c2cccc(C#Cc3cccc(NC(=O)c4cc(F)cc(C(F)(F)F)c4)c3)c12 | > 100 µM | 2.14 µM | 5.28 µM | – | –
3 | Nc1n[nH]c2cccc(C#Cc3cccc(C(=O)Nc4ccc(CN5CCOCC5)c(C(F)(F)F)c4)c3)c12 | > 100 µM | 0.57 µM | 1.61 µM | 0.194 µM | –
4 | Nc1n[nH]c2cccc(C#Cc3cccc(C(=O)Nc4cc(C(F)(F)F)cc(C(F)(F)F)c4)c3)c12 | > 100 µM | 0.52 µM | 1.48 µM | – | –
5 | CN1CCN(Cc2cc(NC(=O)c3cccc(C#Cc4cccc5[nH]nc(N)c45)c3)cc(C(F)(F)F)c2)CC1 | > 100 µM | 0.3 µM | 1.63 µM | 0.0567 µM | –
6 | Cc1ccc(NC(=O)c2ccc(CN3CCN(C)CC3)cc2)cc1Nc1nccc(-c2cccnc2)n1 [IMATINIB] | > 10 µM | 0.8 µM | – | – | inhibition of growth at 10 µM (SR [5]): 14.6%; inhibition of growth at 10 µM (CCRF-CEM [6]): 6.6%; inhibition of growth at 10 µM (RPMI-8226 [7]): 12.6%; growth inhibition (GI) (HL-60(TB) [8]): inactive; inhibition of growth at 10 µM (MOLT-4 [9]): 18%; GI50 (K562 [10]): 0.02 µM
7 | Nc1n[nH]c2cccc(C#Cc3cccc(NC(=O)c4cccc(C(F)(F)F)c4)c3)c12 | > 100 µM | 1.54 µM | 2.55 µM | – | –
8 | Nc1n[nH]c2cccc(C#Cc3cccc(C(=O)Nc4cccc(C(F)(F)F)c4)c3)c12 | 15.3 µM | 3.47 µM | 2.26 µM | – | –
9 | Nc1n[nH]c2cccc(C#Cc3cccc(C(=O)Nc4cc(CN5CCOCC5)cc(C(F)(F)F)c4)c3)c12 | 16.7 µM | 0.83 µM | 2.51 µM | 0.571 µM | –
10 | Nc1n[nH]c2cccc(C#Cc3cccc(C(=O)Nc4ccc(Cl)c(C(F)(F)F)c4)c3)c12 | > 100 µM | 3.81 µM | 1.42 µM | – | –
11 | Cc1cn(-c2cc(NC(=O)c3cccc(C#Cc4cccc5[nH]nc(N)c45)c3)cc(C(F)(F)F)c2)cn1 | 12.9 µM | 0.15 µM | 0.824 µM | 0.0258 µM | inhibition of growth at 10 µM (SR [5]): 71.7%; GI50 (MOLT-4 [11]): 3.84 µM; GI50 (SR [12]): 5.06 µM; GI50 (CCRF-CEM [13]): 4.88 µM; inhibition of growth at 10 µM (CCRF-CEM [6]): 85%; inhibition of growth at 10 µM (RPMI-8226 [7]): 86.2%; GI50 (HL-60(TB) [14]): 3.22 µM; inhibition of growth at 10 µM (K562 [15]): 96.8%; RatioGI50 [16]: 322; inhibition of growth at 10 µM (HL-60(TB) [8]; read-out: GI): 87.5%; inhibition of growth at 10 µM (MOLT-4 [9]): 79.3%; GI50 (RPMI-8226 [17]): 4.54 µM; GI50 (K562 [10]): < 0.01 µM
12 | CN1CCN(c2ccc(C(=O)Nc3cccc(C#Cc4cccc5[nH]nc(N)c45)c3)cc2C(F)(F)F)CC1 | > 10 µM | 1.48 µM | – | – | –
13 | Nc1n[nH]c2cccc(C#Cc3cccc(NC(=O)c4cc(C(F)(F)F)cc(C(F)(F)F)c4)c3)c12 | – | > 10 µM | > 20 µM | – | –
14 | Nc1n[nH]c2cccc(C#Cc3cccc(NC(=O)c4cc(N5CCOCC5)cc(C(F)(F)F)c4)c3)c12 | > 100 µM | 2.21 µM | 4.84 µM | – | –
15 | Cc1cn(-c2cc(C(=O)Nc3cccc(C#Cc4cccc5[nH]nc(N)c45)c3)cc(C(F)(F)F)c2)cn1 | 10.9 µM | 0.07 µM | 1.44 µM | 0.0154 µM | –
